From ChEMBL document CHEMBL1201862, “PubChem BioAssay data set” (2004)
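Values below derive from 48-hour exposures of cells grown in 96-well plates, with endpoints linearly interpolated between the two concentrations bracketing the appropriate inhibition level. Abbreviation: GI50, concentration required for 50% inhibition of growth.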 Calls of active or inactive are those of the source. Cut-off read from the data, not from the text of the source: active = GI50 up to about 1.1 µM and inactive = higher.

Tests used:
Test in all cases: growth of human tumour cells (NCI), 48 h
[1] = test system: MDA-N
[2] = test system: 786-0
[3] = test system: SF-295
[4] = test system: SR
[5] = test system: NCI/ADR-RES
[6] = test system: TK-10
[7] = test system: SK-OV-3
[8] = test system: UACC-62
[9] = test system: MDA-MB-231
[10] = test system: DU-145
[11] = test system: MDA-MB-435
[12] = test system: HT-29
[13] = test system: SN12C
[14] = test system: UACC-257
[15] = test system: EKVX
[16] = test system: K562
[17] = test system: SF-268
[18] = test system: M14
[19] = test system: A549
[20] = test system: HCT-116
[21] = test system: HCC 2998
[22] = test system: CCRF-CEM
[23] = test system: PC-3
[24] = test system: RXF 393
[25] = test system: COLO 205
[26] = test system: SNB-75
[27] = test system: SK-MEL-2
[28] = test system: SW-620
[29] = test system: LOX IMVI
[30] = test system: ACHN
[31] = test system: OVCAR-5
[32] = test system: HOP-62
[33] = test system: U-251
[34] = test system: NCI-H23
[35] = test system: UO-31
[36] = test system: SF-539
[37] = test system: IGROV-1
[38] = test system: OVCAR-3
[39] = test system: MOLT-4
[40] = test system: KM12
[41] = test system: NCI-H522
[42] = test system: SK-MEL-5
[43] = test system: MCF7
[44] = test system: SK-MEL-28
[45] = test system: OVCAR-8
[46] = test system: BT-549
[47] = test system: HCT-15
[48] = test system: SNB-19
[49] = test system: HOP-92
[50] = test system: RPMI-8226
[51] = test system: T47D
[52] = test system: NCI-H460
[53] = test system: CAKI-1
[54] = test system: HL-60
[55] = test system: A498
[56] = test system: NCI-H226
[57] = test system: OVCAR-4
[58] = test system: Hs-578T
[59] = test system: Malme-3M

Measured: GI50

Cc1ccc(-n2c(C)n[nH]c2=O)cc1
inactive: [1] > 100 µM | [2] > 100 µM | [3] > 100 µM | [4] > 100 µM | [5] > 100 µM | [6] > 100 µM | [7] > 100 µM | [8] > 100 µM | [9] > 100 µM | [10] > 100 µM | [11] > 100 µM | [12] > 100 µM | [13] > 100 µM | [14] > 100 µM | [15] > 100 µM | [16] > 100 µM | [17] > 100 µM | [18] > 100 µM | [19] > 100 µM | [20] > 100 µM | [21] > 100 µM | [22] > 100 µM | [23] > 100 µM | [24] > 100 µM | [25] > 100 µM | [26] > 100 µM | [27] > 100 µM | [28] > 100 µM | [29] > 100 µM | [30] > 100 µM | [31] > 100 µM | [32] > 100 µM | [33] > 100 µM | [34] > 100 µM | [35] > 100 µM | [36] > 100 µM | [37] > 100 µM | [38] > 100 µM | [39] > 100 µM | [40] > 100 µM | [41] > 100 µM | [42] > 100 µM | [43] > 100 µM | [44] > 100 µM | [45] > 100 µM | [46] > 100 µM | [48] > 100 µM | [49] > 100 µM | [50] > 100 µM
> 100 µM: [47]

CCCCCCC(=O)c1ccc2ccccc2c1O
inactive: [2] 38.8 µM | [3] 34.5 µM | [4] 33.3 µM | [5] 51.2 µM | [6] > 100 µM | [7] 52.4 µM | [8] 47 µM | [9] 85.5 µM | [10] 26.6 µM | [11] 69.2 µM | [12] 25.1 µM | [14] 32.7 µM | [15] 25.4 µM | [16] > 100 µM | [17] 34.2 µM | [51] 34.8 µM | [18] 58.3 µM | [20] 53 µM | [21] > 100 µM | [22] 33.1 µM | [23] 61 µM | [24] 25.1 µM | [25] 66.1 µM | [26] 43.1 µM | [27] 23.8 µM | [28] 64.7 µM | [29] 42.1 µM | [30] 54 µM | [32] > 100 µM | [52] 52.4 µM | [33] > 100 µM | [34] 92.5 µM | [53] 43.2 µM | [54] 36.4 µM | [35] 47.6 µM | [36] 52.7 µM | [37] 27.4 µM | [39] 20.3 µM | [56] 40.1 µM | [57] > 100 µM | [58] 56 µM | [40] 31 µM | [42] > 100 µM | [43] 33.4 µM | [44] > 100 µM | [45] 41.7 µM | [46] 76 µM | [48] > 100 µM | [49] 93.3 µM | [50] 98.4 µM
active: [55] 0.318 µM
32.8 µM: [47]

CC(C)Sc1nc(C#N)cc2c1CCCC2
inactive: [1] 37.7 µM | [2] 54 µM | [3] 40.9 µM | [4] 20.7 µM | [5] 39.2 µM | [6] > 100 µM | [7] 72.9 µM | [8] 91.8 µM | [9] 57.1 µM | [10] > 100 µM | [11] 47 µM | [12] > 100 µM | [13] 51.3 µM | [14] 39.9 µM | [15] 49.4 µM | [16] 48.9 µM | [17] 50.7 µM | [51] 56.9 µM | [18] 48.6 µM | [19] 37.1 µM | [20] 44.7 µM | [59] 36.1 µM | [21] 74.8 µM | [22] 24.8 µM | [23] 38.2 µM | [24] 27.7 µM | [25] 20.1 µM | [26] > 100 µM | [27] 23.2 µM | [28] 37.8 µM | [29] 25.4 µM | [30] 40.6 µM | [31] > 100 µM | [32] 85.7 µM | [52] 48.9 µM | [33] 46.5 µM | [34] 58.9 µM | [53] > 100 µM | [35] 47.6 µM | [36] 42.5 µM | [37] 96.2 µM | [38] 30.3 µM | [39] 19.5 µM | [55] 37.1 µM | [56] 40.6 µM | [57] 53.1 µM | [40] 28.6 µM | [41] 21.1 µM | [42] 15.8 µM | [43] 39.4 µM | [44] 29.7 µM | [45] 63.5 µM | [46] 99.1 µM | [48] > 100 µM | [49] 33.5 µM | [50] 26.4 µM
37.6 µM: [47]

CC(=O)/N=C1\NC(=O)/C(=C/c2ccc(/C=C3/C(=O)N/C(=N\C(C)=O)N3C)cc2)N1C
> 100 µM: [47]
inactive: [1] > 100 µM | [2] > 100 µM | [3] > 100 µM | [5] > 100 µM | [6] > 100 µM | [7] > 100 µM | [8] > 100 µM | [9] > 100 µM | [10] > 100 µM | [11] > 100 µM | [12] > 100 µM | [13] > 100 µM | [14] > 100 µM | [15] > 100 µM | [17] > 100 µM | [51] > 100 µM | [18] > 100 µM | [19] > 100 µM | [20] > 100 µM | [21] > 100 µM | [24] > 100 µM | [25] > 100 µM | [26] > 100 µM | [27] > 100 µM | [28] > 100 µM | [29] > 100 µM | [30] > 100 µM | [31] > 100 µM | [32] > 100 µM | [52] > 100 µM | [33] > 100 µM | [34] > 100 µM | [53] > 100 µM | [54] 47.3 µM | [35] > 100 µM | [36] > 100 µM | [37] > 100 µM | [38] > 100 µM | [39] > 100 µM | [55] > 100 µM | [56] > 100 µM | [57] > 100 µM | [40] > 100 µM | [42] > 100 µM | [43] > 100 µM | [44] > 100 µM | [45] > 100 µM | [46] > 100 µM | [48] > 100 µM | [49] > 100 µM

COc1c(Br)cc(/C=C(\C#N)c2cccnc2)cc1Br
inactive: [1] > 100 µM | [2] > 100 µM | [3] 52.7 µM | [4] 29.5 µM | [5] 34.9 µM | [6] 61.7 µM | [7] 56.9 µM | [8] > 100 µM | [10] > 100 µM | [12] 26.4 µM | [13] > 100 µM | [14] > 100 µM | [15] 4.31 µM | [16] 80.9 µM | [17] 67.6 µM | [18] 43.4 µM | [19] 53.1 µM | [20] > 100 µM | [59] > 100 µM | [21] 48 µM | [22] > 100 µM | [23] 45.4 µM | [24] 51.5 µM | [25] 34.5 µM | [26] > 100 µM | [27] 96.6 µM | [28] 38.7 µM | [30] 93.3 µM | [31] 30.3 µM | [32] 54.8 µM | [52] 37.8 µM | [33] 36.3 µM | [34] 32.7 µM | [53] > 100 µM | [54] 36.2 µM | [35] > 100 µM | [36] 43.7 µM | [37] 63 µM | [38] 99.1 µM | [39] 49.1 µM | [56] 33.7 µM | [57] 81.5 µM | [40] 33.1 µM | [41] 42.1 µM | [42] 43.7 µM | [43] 35.8 µM | [44] 50.5 µM | [45] 53.8 µM | [46] 30.5 µM | [48] > 100 µM | [49] 23.1 µM | [50] > 100 µM
33.5 µM: [47]
